The results in this text go back to patent publication US11339130B1 (Blade Therapeutics, Inc., priority 2016, dated 2022).

Read-outs that look alike come from different tables or passages of the source.

Experiment [1] concerns Calpain activity in SH-SY5Y cells. The experiment can be described thus: SH-SY5Y + AMC fluorescence assay (Suc-LLVY-AMC substrate). The conditions noted are these: read-out: SH-SY5Y + AMC IC50. The class given is cell-based.
The target of another experiment is T1, Human Calpain 9/NS1 (Homo sapiens, UniProt O14815).
T1 sequence (O14815 1-690): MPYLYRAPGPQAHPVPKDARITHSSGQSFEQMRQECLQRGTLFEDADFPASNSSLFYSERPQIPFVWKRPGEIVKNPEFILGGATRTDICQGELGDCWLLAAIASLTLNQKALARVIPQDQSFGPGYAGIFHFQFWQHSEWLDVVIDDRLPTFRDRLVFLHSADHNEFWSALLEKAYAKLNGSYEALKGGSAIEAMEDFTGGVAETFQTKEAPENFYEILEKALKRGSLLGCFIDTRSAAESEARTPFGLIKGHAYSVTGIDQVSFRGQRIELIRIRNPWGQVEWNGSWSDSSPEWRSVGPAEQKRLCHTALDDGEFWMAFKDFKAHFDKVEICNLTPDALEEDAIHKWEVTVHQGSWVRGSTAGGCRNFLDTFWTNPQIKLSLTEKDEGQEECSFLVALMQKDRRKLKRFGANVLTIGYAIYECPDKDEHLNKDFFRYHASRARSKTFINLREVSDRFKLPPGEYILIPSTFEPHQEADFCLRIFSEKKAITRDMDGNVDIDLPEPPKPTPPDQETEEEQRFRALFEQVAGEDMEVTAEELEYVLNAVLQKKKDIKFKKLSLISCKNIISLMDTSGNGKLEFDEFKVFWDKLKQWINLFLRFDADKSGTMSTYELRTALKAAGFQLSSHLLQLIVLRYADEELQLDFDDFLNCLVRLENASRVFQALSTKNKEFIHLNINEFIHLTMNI
T1 sequence (P04632 1-268 partner): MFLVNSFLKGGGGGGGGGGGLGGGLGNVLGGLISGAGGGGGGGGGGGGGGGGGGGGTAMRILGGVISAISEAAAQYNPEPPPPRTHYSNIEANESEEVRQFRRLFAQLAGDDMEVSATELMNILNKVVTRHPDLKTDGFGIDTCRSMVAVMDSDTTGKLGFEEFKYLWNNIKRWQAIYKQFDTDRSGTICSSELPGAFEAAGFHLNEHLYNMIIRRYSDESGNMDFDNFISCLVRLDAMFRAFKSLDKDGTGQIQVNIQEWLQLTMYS
The experiment can be described thus: Calpain inhibition continuous fluorescence (FRET) assay, Human Calpain 9/NS1. The class given is biochemical. The conditions noted are these: read-out: Human Calpain 9/NS1 IC50. The procedure, abridged:
(§1)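 Human calpains 1, 2 and 9 preincubated with inhibitor at 25 °C in 50 mM Tris pH 7.5, 100 mM NaCl, 1 mM DTT; reaction started with 5-FAM/QXL 520 FRET peptide plus CaCl2 for activation. Fluorescence (490/520 nm) followed 10 min; rates from 1-5 min slopes fitted to 4-parameter logistic for IC50.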

A further experiment has as its target T2, Human Calpain 2/NS1 (Homo sapiens, UniProt P17655).
T2 sequence (P17655 1-700): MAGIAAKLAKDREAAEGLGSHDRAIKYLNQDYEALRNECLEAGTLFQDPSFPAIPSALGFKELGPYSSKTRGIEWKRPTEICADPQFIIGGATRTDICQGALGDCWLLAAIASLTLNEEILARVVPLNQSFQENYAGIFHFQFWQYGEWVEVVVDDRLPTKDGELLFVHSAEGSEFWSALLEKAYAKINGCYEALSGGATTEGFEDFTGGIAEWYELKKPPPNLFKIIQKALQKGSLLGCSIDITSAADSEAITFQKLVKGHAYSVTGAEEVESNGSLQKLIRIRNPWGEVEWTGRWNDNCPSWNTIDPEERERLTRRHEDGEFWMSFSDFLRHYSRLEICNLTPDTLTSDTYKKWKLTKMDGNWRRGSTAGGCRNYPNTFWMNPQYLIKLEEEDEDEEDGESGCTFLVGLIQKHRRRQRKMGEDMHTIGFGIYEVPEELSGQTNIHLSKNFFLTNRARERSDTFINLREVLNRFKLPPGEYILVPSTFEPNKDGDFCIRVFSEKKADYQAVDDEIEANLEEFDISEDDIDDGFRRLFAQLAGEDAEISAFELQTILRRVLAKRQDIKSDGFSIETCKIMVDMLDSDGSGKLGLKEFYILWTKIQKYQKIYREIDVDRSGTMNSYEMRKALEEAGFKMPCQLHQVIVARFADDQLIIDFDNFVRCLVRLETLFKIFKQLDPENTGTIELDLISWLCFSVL
T2 sequence (P04632 1-268 partner): T1 sequence (P04632 1-268 partner)
Kind of experiment: Calpain inhibition continuous fluorescence (FRET) assay, Human Calpain 2/NS1. In kind it is biochemical. The conditions noted are these: read-out: Human Calpain 2/NS1 IC50. The procedure, abridged:
as §1

The target in another experiment is T3, Human Calpain 1/NS1 (Homo sapiens, UniProt P07384).
T3 sequence (P07384 1-714): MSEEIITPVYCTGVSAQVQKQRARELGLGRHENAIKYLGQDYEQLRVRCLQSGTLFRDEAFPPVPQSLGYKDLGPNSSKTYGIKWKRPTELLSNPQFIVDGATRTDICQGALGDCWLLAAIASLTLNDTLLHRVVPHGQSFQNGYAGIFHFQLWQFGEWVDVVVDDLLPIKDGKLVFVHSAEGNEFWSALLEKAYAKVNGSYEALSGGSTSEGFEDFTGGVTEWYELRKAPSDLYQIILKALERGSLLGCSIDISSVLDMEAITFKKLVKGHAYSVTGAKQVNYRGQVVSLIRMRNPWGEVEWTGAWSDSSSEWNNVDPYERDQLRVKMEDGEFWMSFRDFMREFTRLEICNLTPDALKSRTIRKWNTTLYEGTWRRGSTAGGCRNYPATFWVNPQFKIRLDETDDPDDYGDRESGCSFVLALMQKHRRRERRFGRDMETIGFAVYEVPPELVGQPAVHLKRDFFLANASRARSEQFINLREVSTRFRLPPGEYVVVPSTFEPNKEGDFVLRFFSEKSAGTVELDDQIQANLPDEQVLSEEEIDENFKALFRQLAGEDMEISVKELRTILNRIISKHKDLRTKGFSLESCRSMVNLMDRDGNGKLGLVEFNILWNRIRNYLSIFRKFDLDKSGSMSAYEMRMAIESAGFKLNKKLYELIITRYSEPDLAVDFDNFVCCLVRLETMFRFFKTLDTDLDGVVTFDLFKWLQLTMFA
T3 sequence (P04632 1-268 partner): T1 sequence (P04632 1-268 partner)
The experiment can be described thus: Calpain inhibition continuous fluorescence (FRET) assay, Human Calpain 1/NS1. In kind it is biochemical. The settings on record: read-out: Human Calpain 1/NS1 IC50. The procedure, abridged: as §1

The test system of experiment [2] is Calpain activity in SH-SY5Y cells (SBDP-150). Kind of experiment: SH-SY5Y Spectrin western blot assay (SBDP-150 breakdown product, A23187-induced). The class given is cell-based. The settings on record: SH-SY5Y cells, read-out: SH-SY5Y Spectrin IC50.
The mark [3] stands for this setting: Homo sapiens, A23187-induced SBDP-150, western blot.
The mark [4] stands for this setting: Homo sapiens, Column D, A23187-induced SBDP-150.

`O=CC(Cc1ccccc1)NC(=O)c1nsnc1-c1ccccc1` (centres unmarked) [Compound 401, N-(1-oxo-3-phenylpropan-2-yl)-4-phenyl-1,2,5-thiadiazole-3-carboxamide]: the IC50 is over 25 µM in experiment [1]; under 3 µM on Human Calpain 9/NS1; under 3 µM on Human Calpain 2/NS1; under 3 µM on Human Calpain 1/NS1; under 10 µM in experiment [2] (setting [3]).

For the molecule `NC(=O)C(=O)[C@H](Cc1ccccc1)NC(=O)c1conc1-c1ccccc1F` [Compound 277, (S)—N-(4-amino-3,4-dioxo-1-phenylbutan-2-yl)-3-(2-fluorophenyl)isoxazole-4-carboxamide], the IC50 was under 10 µM in experiment [1] (Column E); under 3 µM at Human Calpain 9/NS1 (Column C); under 3 µM at Human Calpain 2/NS1 (Column B); under 3 µM on Human Calpain 1/NS1 (Column A); 10 to 25 µM in experiment [2] (setting [4]).

In the case of `Cc1nc(-c2cnc3ccccc3n2)c(C(=O)NC(Cc2ccccc2)C(=O)C(N)=O)o1` (centres unmarked) [Compound 356, N-(4-amino-3,4-dioxo-1-phenylbutan-2-yl)-2-methyl-4-(quinoxalin-2-yl)oxazole-5-carboxamide], the IC50 was over 25 µM in experiment [1]; under 3 µM at Human Calpain 9/NS1; under 3 µM at Human Calpain 2/NS1; under 3 µM at Human Calpain 1/NS1; over 25 µM in experiment [2] (setting [3]).

As for `Cn1cc(C(=O)NC(Cc2ccccc2)C(=O)C(N)=O)c(-c2ccccc2C(F)F)n1` (centres unmarked) [Compound 572, N-(4-amino-3,4-dioxo-1-phenylbutan-2-yl)-3-(2-(difluoromethyl)phenyl)-1-methyl-1H-pyrazole-4-carboxamide], the IC50 was under 10 µM in experiment [1]; under 3 µM on Human Calpain 9/NS1; under 3 µM at Human Calpain 2/NS1; under 3 µM at Human Calpain 1/NS1; over 25 µM in experiment [2] (setting [3]).

`Cc1ccc(F)cc1-c1nn(C(F)F)cc1C(=O)NC(Cc1ccccc1)C(=O)C(N)=O` (centres unmarked) [Compound 566, N-(4-amino-3,4-dioxo-1-phenylbutan-2-yl)-1-(difluoromethyl)-3-(5-fluoro-2-methylphenyl)-1H-pyrazole-4-carboxamide]: the IC50 in experiment [1] was under 10 µM; on Human Calpain 9/NS1 it was under 3 µM; at Human Calpain 2/NS1 it was under 3 µM; on Human Calpain 1/NS1 it was under 3 µM; in experiment [2] (setting [3]), 10 to 25 µM.

As to `Cc1nc(-c2ccccc2F)c(C(=O)N[C@H](Cc2ccccc2)C(=O)C(N)=O)o1` [Compound 592, (R)—N-(4-amino-3,4-dioxo-1-phenylbutan-2-yl)-4-(2-fluorophenyl)-2-methyloxazole-5-carboxamide], the IC50 in experiment [1] was under 10 µM; at Human Calpain 9/NS1, under 3 µM; at Human Calpain 2/NS1, under 3 µM; on Human Calpain 1/NS1, under 3 µM; in experiment [2] (setting [3]), 10 to 25 µM.

Regarding `Cc1ccc(-c2ccc(-n3nc(C)cc3C(=O)N[C@@H](Cc3ccccc3)C(=O)C(N)=O)cc2)cc1` [Compound 130], the IC50 in experiment [1] (Column E) is over 25 µM; on Human Calpain 9/NS1 (Column C), under 3 µM; at Human Calpain 2/NS1 (Column B), under 3 µM; at Human Calpain 1/NS1 (Column A), under 3 µM; in experiment [2] (setting [4]), under 10 µM.

Regarding “N-(4-amino-3-hydroxy-4-oxo-1-phenylbutan-2-yl)-4-(4-((benzyloxy)methyl)phenyl)-1,2,5-thiadiazole-3-carboxamide [Compound 369]”, the IC50 in experiment [1] was over 25 µM; at Human Calpain 9/NS1 it was under 3 µM; at Human Calpain 2/NS1, under 3 µM; on Human Calpain 1/NS1, under 3 µM; in experiment [2] (A23187-induced SBDP-150, western blot), under 10 µM.

Regarding `NC(=O)C(=O)[C@H](Cc1ccccc1)NC(=O)c1cn(C#Cc2ccccc2)c2ccccc12` [Compound 252, (S)—N-(4-amino-3,4-dioxo-1-phenylbutan-2-yl)-1-(phenylethynyl)-1H-indole-3-carboxamide], the IC50 in experiment [1] (Column E) is over 25 µM; at Human Calpain 9/NS1 (Column C), over 10 µM; on Human Calpain 2/NS1 (Column B), over 10 µM; on Human Calpain 1/NS1 (Column A), over 10 µM; in experiment [2] (setting [4]), over 25 µM.

Take `O=C(NC1CC1)C(=O)C(Cc1ccccc1)NC(=O)c1cnoc1-c1ccccc1` (centres unmarked) [Compound 461, N-(4-(cyclopropylamino)-3,4-dioxo-1-phenylbutan-2-yl)-5-phenylisoxazole-4-carboxamide]: the IC50 in experiment [1] is over 25 µM; on Human Calpain 9/NS1, under 3 µM; on Human Calpain 2/NS1 it was under 3 µM; at Human Calpain 1/NS1, under 3 µM; in experiment [2] (setting [3]), under 10 µM.

As for `Cc1c(C(=O)NC(Cc2ccccc2)C(=O)C(N)=O)c(-c2ccccc2)nn1C` (centres unmarked) [Compound 583], the IC50 in experiment [1] is over 25 µM; at Human Calpain 9/NS1, under 3 µM; on Human Calpain 2/NS1 it was under 3 µM; on Human Calpain 1/NS1, under 3 µM; in experiment [2] (setting [3]) it was over 25 µM.

For the molecule `Cc1cc(C(=O)N[C@@H](Cc2ccccc2)C(=O)C(N)=O)n(-c2cnccn2)n1` [Compound 63, (S)—N-(4-amino-3,4-dioxo-1-phenylbutan-2-yl)-3-methyl-1-(pyrazin-2-yl)-1H-pyrazole-5-carboxamide], the IC50 in experiment [1] (Column E) is under 10 µM; on Human Calpain 9/NS1 (Column C), under 3 µM; on Human Calpain 2/NS1 (Column B), under 3 µM; on Human Calpain 1/NS1 (Column A), under 3 µM; in experiment [2] (setting [4]), under 10 µM.

For the molecule `NC(=O)C(=O)C(Cc1ccccc1)NC(=O)c1cc(C(F)(F)F)sc1-c1ccccc1` (centres unmarked) [Compound 286], the IC50 in experiment [1] (Column E) was over 25 µM; on Human Calpain 9/NS1 (Column C), under 3 µM; on Human Calpain 2/NS1 (Column B), under 3 µM; at Human Calpain 1/NS1 (Column A), under 3 µM; in experiment [2] (setting [4]), under 10 µM.
